Tests used:
[1] = general statement, no test described; cited from earlier work
[2] = system: patients with ARCI; assay: Left sided vs right sided trial of the lovastatin-cholesterol combination cream in ARCI patients; type: in vivo, human; design: Erythema / Total score: scale not given here; settings: left side glycolic acid only, right side also combination cream
Source text: Each patient was given a severity score based on 5 criteria: (1) skin thickness and/or scaling; (2) pain, pruritus, and/or discomfort; (3) erythema; (4) impact of the condition on the ability to perform daily functions; and (5) the patient's subjective severity scoring, i.e., the patient's own assessment of the severity of the condition.
Five patients applied the combination cream of lovastatin and cholesterol on the right side of the body only, while the glycolic acid was applied to both sides (patients 1, 2, 3, 4, and 6).

## CC(=O)N1CCN(c2ccc(OCC3COC(Cn4ccnc4)(c4ccc(Cl)cc4Cl)O3)cc2)CC1 (racemic) [Ketoconazole, 1-acetyl-4-[4-[[2-(2,4-dichlorophenyl)-2-[(1H-imidazol-1-yl)-methyl]-1,3-dioxolan-4-yl]methoxy]phenyl]piperazine]
[1]
  solubility: low solubility

## O=C(O)CO [glycolic acid, hydroxyacetic acid]
[2]; patient 1, at 2 months vs baseline total score
  % change: −5.4545%
[2]; patient 1, at 2 months
  Ability to perform daily functions: 5
  Erythema: 9
  Pain/pruritis/discharge: 6
  Patient severity scoring: 17
  Response: Mild
  Skin thickness/scaling: 15
  Total score: 52
[2]; patient 1, at 3 months vs baseline total score
  % change: −54.545%
[2]; patient 1, at 3 months
  Ability to perform daily functions/to move: 2
  Erythema: 4
  Pain/pruritis/discharge: 2
  Patient severity scoring: 8
  Skin thickness/scaling: 9
  Total score: 25
[2]; patient 2, at 2 months vs baseline total score
  % change: −12%
[2]; patient 2, at 2 months
  Ability to perform daily functions: 5
  Erythema: 6
  Pain/pruritis/discharge: 6
  Patient severity scoring: 17
  Response: Mild
  Skin thickness/scaling: 10
  Total score: 44
[2]; patient 2, at 3 months vs baseline total score
  % change: −58%
[2]; patient 2, at 3 months
  Ability to perform daily functions/to move: 2
  Erythema: 4
  Pain/pruritis/discharge: 4
  Patient severity scoring: 5
  Skin thickness/scaling: 6
  Total score: 21
[2]; patient 3, at 2 months vs baseline total score
  % change: −3.7037%
[2]; patient 3, at 2 months
  Ability to perform daily functions: 3
  Erythema: 3
  Pain/pruritis/discharge: 3
  Patient severity scoring: 10
  Response: Mild
  Skin thickness/scaling: 7
  Total score: 26
[2]; patient 3, at 3 months vs baseline total score
  % change: −40.7407%
[2]; patient 3, at 3 months
  Ability to perform daily functions/to move: 1
  Erythema: 2
  Pain/pruritis/discharge: 2
  Patient severity scoring: 7
  Response: Good
  Skin thickness/scaling: 4
  Total score: 16
[2]; patient 4, at 2 months vs baseline total score
  % change: −41.818%
[2]; patient 4, at 2 months
  Ability to perform daily functions: 3
  Erythema: 9
  Pain/pruritis/discharge: 4
  Patient severity scoring: 8
  Response: Good
  Skin thickness/scaling: 8
  Total score: 32
[2]; patient 4, at 3 months vs baseline total score
  % change: −65.455%
[2]; patient 4, at 3 months
  Ability to perform daily functions/to move: 2
  Erythema: 4
  Pain/pruritis/discharge: 2
  Patient severity scoring: 5
  Skin thickness/scaling: 6
  Total score: 19
[2]; patient 6, at 2 months vs baseline total score
  % change: −7.353%
[2]; patient 6, at 2 months
  Ability to perform daily functions: 10
  Erythema: 13
  Pain/pruritis/discharge: 8
  Patient severity scoring: 17
  Response: Mild
  Skin thickness/scaling: 15
  Total score: 63
[2]; patient 6, at 3 months vs baseline total score
  % change: −10.2941%
[2]; patient 6, at 3 months
  Ability to perform daily functions/to move: 10
  Erythema: 13
  Pain/pruritis/discharge: 7
  Patient severity scoring: 17
  Response: Mild
  Skin thickness/scaling: 14
  Total score: 61
